Here are results for one molecule from PMC9320886, “Daily Intraperitoneal Administration of Rosiglitazone Does Not Improve Lung Function or Alveolarization in Preterm Rabbits Exposed to Hyperoxia” (Pharmaceutics, 2022).

A short description of data set [1]: pharmacokinetic profiling in preterm rabbits. Format: in vivo. As to conditions: rabbit. On the procedure:
A total of 30 preterm rabbits with a GA of 28 days were featured in the pharmacokinetic study. […] Surviving pups were randomized to either receive an intratracheal (IT, local delivery, n = 15) or intraperitoneal (IP, systemic delivery, n = 15) dose of 1 mg/kg of RGZ. For IP injections, RGZ (10 mg/mL in DMSO) was dissolved in H2O + 10% Tween-80 at 0.4 mg/mL and then injected in the right flank based on the pups’ body weight. For IT injections, RGZ (50 mg/mL in DMSO; Merck KGaA) was dissolved in 80 mg/mL of Poractant alfa (Curosurf, Chiesi Farmaceutici, Parma, Italy) at 0.4 mg/mL; the injection volume was based on the pups’ body weight (2.5 mL/kg), as previously described.
Before sample collection, all pups were euthanized with a pentothal sodium overdose. All samples were stored at −20 °C until analysis.
Bioanalysis and quantification were performed using a fit-for-purpose LC/MS/MS method developed internally (LC and MS conditions already described in Section 2.2). Plasma and lung homogenate samples (lungs were homogenized with a water/acetonitrile 50/50 mixture) were extracted by means of protein precipitation with 3 volumes of acetonitrile (Sigma-Aldrich Co, St. Louise, MO, USA), and the supernatant was directly injected into the LC/MS/MS system.
The plasma and lung concentrations of RGZ were determined using a calibration curve prepared in the corresponding blank rabbit matrix (range of calibration: 2–500 ng/mL for plasma; 12–6000 ng/g for lungs) and the accuracy of the quantitation was verified using quality controls prepared in the same matrix and back-calculated on the curve.
Pharmacokinetic parameters were calculated by non-compartmental analysis using Phoenix WinNonlin (Certara L.P., Princeton, NJ, USA). The following PK parameters were calculated: Tmax, time of the maximum concentration; Cmax, maximum concentration; t1/2, half-life (calculable only in case of well-defined elimination phase); AUClast, area under the curve up to the last time point.

For data set [2], the system named is premature rabbit pups with intraventricular hemorrhage. Set-up: method as in PMID 34462350. As to conditions: twice-daily 0.1 mg/kg; cited from earlier work.
Data set [3] has as its system preterm rabbits exposed to hyperoxia. The data set can be described thus: pulmonary efficacy, daily intraperitoneal 10 mg/kg, preterm rabbits exposed to hyperoxia. As to conditions: daily i.p. 10 mg/kg. Format: in vivo, rabbit. On the procedure: At Day 7, invasive lung function testing was performed using the forced oscillation technique with the flexiVent^TM apparatus (SCIREQ, Montréal, Canada). Pups were anesthetized with intramuscular ketamine (35 mg/kg) and xylazine (6 mg/kg) before a tracheostomy was performed, and an 18-gauge metal needle was inserted in the trachea and tied. Pups were connected to the volume-controlled mechanical ventilation of the flexiVent^TM (SCIREQ, tidal volume 10 mL/kg, frequency of 120 breaths/min, PEEP of 3 cmH2O). All pups were euthanized with a pentothal sodium overdose.
The following parameters were measured: total inspiratory capacity, resistance of the respiratory system (Rrs), lung tissue damping (G), lung tissue elastance (H), and static compliance (Cst). Three consistent measurements were obtained, with a coefficient of determination >0.95 as the limit to accept the measurement. The average of three measurements was calculated and used in the analysis.
At necropsy, lungs were removed en bloc and a 20-gauge catheter was secured inside the trachea. Lungs were fixed with 10% buffered formalin (Sigma-Aldrich) for at least 4 h under constant pressure (25 cmH2O) using a custom-made fixation device to ensure homogenous fixation pressures. After removal from pressure fixation, the lungs were first left in formalin for at least 24 h and then transferred to 70% ethanol.
The left lung and the right lungs were embedded in paraffin, cut, and stained with hematoxylin and eosin (H&E) following standard histology protocols. The radial alveolar count (RAC) was performed by an expert pathologist blinded to the experimental design by drawing a perpendicular line from the lumen of the terminal bronchiole to the nearest connective tissue septum or pleural margin and the number of saccules or alveoli crossed by this line was counted as previously described. In total, 20 measurements were performed for each lung pair.
An independent experimental session investigated the efficacy of RGZ at a higher dose (10 mg/kg). In total, 36 preterm rabbits with a GA of 28 days delivered from 4 does were randomized to either the control group (n = 18) or the RGZ 10 mg/kg group (n = 18 per group). Hyperoxia exposure, RGZ administration, animal care and feeding procedures, lung function testing, RAC, and sample collection were performed as described above.

Data set [4] concerns newborn rats. Set-up: method as in PMID 19262292. As to conditions: daily i.p. doses as low as 0.3 mg/kg; cited from earlier work.
For data set [5], the system named is preterm rabbits exposed to hyperoxia. The data set can be described thus: pulmonary efficacy, daily intraperitoneal 1 mg/kg, preterm rabbits exposed to hyperoxia. Format: in vivo, rabbit. As to conditions: daily i.p. 1 mg/kg. On the procedure:
A total of 31 preterm rabbits with a GA of 28 days delivered from 4 does were included in the efficacy study. After delivery, newborn pups were put in hyperoxia (95% oxygen) for 1 h. Surviving pups were exposed to hyperoxia (95% O2) for 7 days and randomized to receiving daily (from postnatal day (PND) 0 to PND 6) intraperitoneal injections of RGZ at 1 mg/kg (n = 15) or the vehicle (n = 16).
Pups were placed on a sterilized soft bedding and remained in the incubator except for the feeding and treatments. Pups were fed 4 h after delivery on PND 0 with a milk replacer (Day One®, Protein 30%, Fat 50%; FoxValley, Aurora, IL, USA). Probiotics, electrolytes, and vitamins are added during the first 7 days (Bio-Lapis®; Probiotics International Ltd., Somerser, UK) and immunoglobulins during the first 2 days (Col-o-Cat®, SanoBest, Hertogenbosch, Netherlands). The standard feeding protocol consisted of incrementally increasing the amounts of milk replacer (PND 0: 40 mg/kg, PND 1: 50 mg/kg/day, PND 2: 75 mg/kg, PND 3–6: 100 mg/kg/day). On Day 2, vitamin K1 was administered intramuscularly (0.002 mg/kg BW, Konakion pediatrique®; Roche, Basel, Switzerland).
At Day 7, invasive lung function testing was performed using the forced oscillation technique with the flexiVent^TM apparatus (SCIREQ, Montréal, Canada). […]
The following parameters were measured: total inspiratory capacity, resistance of the respiratory system (Rrs), lung tissue damping (G), lung tissue elastance (H), and static compliance (Cst). […] The average of three measurements was calculated and used in the analysis. […]
The left lung and the right lungs were embedded in paraffin, cut, and stained with hematoxylin and eosin (H&E) following standard histology protocols. The radial alveolar count (RAC) was performed by an expert pathologist blinded to the experimental design by drawing a perpendicular line from the lumen of the terminal bronchiole to the nearest connective tissue septum or pleural margin and the number of saccules or alveoli crossed by this line was counted as previously described. […]

For data set [6], the system named is newborn rats. More on the design: method as in PMID 19262292. As to conditions: single (24 h) and repeated (7 days) administration, 0.1–8 mg/kg; cited from earlier work.
Setting [7] is: inhaled or intranasal, plasma, intratracheal 1 mg/kg.
[8] abbreviates: ip, plasma, intraperitoneal 1 mg/kg.

In data set [1] (inhaled or intranasal, lung, intratracheal 1 mg/kg), `CN(CCOc1ccc(CC2SC(=O)NC2=O)cc1)c1ccccn1` (centres unmarked) [RGZ, rosiglitazone] had a half-life of 900 min. Moreover, in data set [1] (setting [7]), the AUC(0-t) was determined as 25800 ng·h/mL, the Cmax is 1950 ng/mL and the Tmax is 15 min. Besides, in data set [1] (ip, lung, intraperitoneal 1 mg/kg), the Cmax was determined as 1020 ng/g. In data set [1] (setting [8]), the concentration peaked (Cmax) at 2440 ng/mL and the Tmax was 15 min. Moreover, in data set [1] (lung and plasma, ip, intraperitoneal 1 mg/kg, read-out: AUCLung/AUCPlasma), the Kp is 0.7. In addition, the “myelination and neurological recovery” value in data set [2] is “improved”. The plasma appearance entry in data set [3] is “white, dense appearance”. For the same molecule, the RAC entry in data set [3] (PND 7, vs vehicle) was “no difference between groups”. Moreover, in data set [3] (PND 7, vs vehicle, p < 0.01), the inspiratory capacity entry is reported as “significantly lower” and the “lung compliance (Cst)” value is on record as “significantly lower”. Moreover, the mortality result in data set [3] (vs vehicle) is “similar”. In the data set with newborn rats [4], the alveolarization entry is listed as “enhanced”; the “surfactant synthesis (lamellar body count, SP-B and SP-C expression)” value was “significantly promoted”. Further, in data set [5] (PND 7), the weight gain is 43.46 ± 4.84 g. Further, in data set [5] (PND 7, vs vehicle), the “alveolarization (RAC)” value was “neither improved”; the “lung function (inspiratory capacity, G, H and Cst)” value is recorded as “neither improved”. Moreover, in the data set on newborn rats [6], the “serum cholesterol and triglycerides levels” value is recorded as “remained unchanged”.
